Molecules are shown by their SMILES.

In this test the test system is T1, OsPMI2 (GST-OsPMI2).
T1 construct: full CDS, N-terminal GST tag kept, E. coli Rosetta (DE3) pLysS; denatured from inclusion bodies and recovered
As to the kind of experiment: PGI/G6PDH-coupled assay, NADP reduction at […] nm, Lineweaver-Burk. The settings on record: 50 mM Tris-HCl pH 7.5, 30 °C; M-6-P to F-6-P; enzyme recovered from denatured inclusion bodies. Format: biochemical, Oryza sativa subsp. japonica.

As usually defined, the Km is the substrate concentration at which the rate is half of its maximum. As to `O=P(O)(O)OC[C@H]1OC(O)[C@@H](O)[C@@H](O)[C@@H]1O` (stereo partly shown) [mannose-6-phosphate], the Km was 6.462 ± 0.0479 mM.

The record behind these values is article PMC4865823, “Plant phosphomannose isomerase as a selectable marker for rice transformation” (Scientific Reports, 2016).
